Patent publication US10179771B2 (GALAPAGOS NV, priority 2014, dated 2019)

Target: T1, Recombinant human JAK1 catalytic domain (Homo sapiens, UniProt P23458)
T1 construct: Recombinant human JAK1 (catalytic domain, amino acids 866-1154; catalog number PV4774); purchased Invitrogen PV4774
Test: JAK1 inhibition assay (polyGT substrate / Ulight-JAK1 peptide assay)
Type: biochemical
Description: Recombinant human JAK1 catalytic domain (amino acids 850-1154; catalog number 08-144) was purchased from Carna Biosciences. 10 ng of JAK1 is incubated with 12.5 μg polyGT substrate (Sigma catalog number P0275) in kinase reaction buffer (15 mM Tris-HCl pH 7.5, 1 mM DTT, 0.01% Tween-20, 10 mM MgCl2, 2 μM non-radioactive ATP, 0.25 ρCi ^33P-gamma-ATP (GE Healthcare, catalog number AH9968) final concentrations) with or without 5 μL containing test compound or vehicle (DMSO, 1% final concentration), in a total volume of 25 μL, in a polypropylene 96-well plate (Greiner, V-bottom). After 45 min at 30° C., reactions are stopped by adding of 25 μL/well of 150 mM phosphoric acid. All of the terminated kinase reaction is transferred to prewashed (75 mM phosphoric acid) 96 well filter plates (Perkin Elmer catalog number 6005177) using a cell harvester (Perkin Elmer). Plates are washed 6 times with 300 μL per well of a 75 mM phosphoric acid solution and the bottom of the plates is sealed. 40 μL/well of Microscint-20 is added, the top of the plates is sealed and readout is performed using the Topcount (Perkin Elmer). Kinase activity is calculated by subtracting counts per min (cpm) obtained in the presence of a positive control inhibitor (10 μM staurosporine) from cpm obtained in the presence of vehicle. The ability of a test compound to inhibit this activity is determined as:
[formula] • RFU test compound=RFU determined for sample with test compound present • RFU control=RFU determined for sample with positive control inhibitor • RFU vehicle=RFU determined in the presence of vehicle
Dose dilution series are prepared for the compounds enabling the testing of dose-response effects in the JAK1 assay and the calculation of the IC50 for each compound. Each compound is routinely tested at concentration of 20 μM followed by a 1/3 serial dilution, 8 points (20 μM-6.67 μM-2.22 μM-740 nM-247 nM-82 nM-27 nM-9 nM) in a final concentration of 1% DMSO. When potency of compound series increased, more dilutions are prepared and/or the top concentration was lowered (e.g. 5 μM, 1 μM).
Recombinant human JAK1 (catalytic domain, amino acids 866-1154; catalog number PV4774) was purchased from Invitrogen. 1 ng of JAK1 was incubated with 20 nM Ulight-JAK1 (tyr1023) peptide (Perkin Elmer catalog number TRF0121) in kinase reaction buffer (25 mM MOPS pH6.8, 0.01% Brij-35, 5 mM MgCl2, 2 mM DTT, 7 μM ATP) with or without 4 μL containing test compound or vehicle (DMSO, 1% final concentration), in a total volume of 20 μL, in a white 384 Opti plate (Perkin Elmer, catalog number 6007290). After 60 min at room temperature, reactions were stopped by adding 20 μL/well of detection mixture (1× detection buffer (Perkin Elmer, catalog number CR97-100C), 0.5 nM Europium-anti-phosphotyrosine (PT66) (Perkin Elmer, catalog number AD0068), 10 mM EDTA). Readout is performed using the Envision with excitation at 320 nm and measuring emission at 615 nm (Perkin Elmer). Kinase activity was calculated by subtracting relative fluorescence units (RFU) obtained in the presence of a positive control inhibitor (10 μM staurosporine) from RFU obtained in the presence of vehicle. The ability of a test compound to inhibit this activity was determined as: Percentage inhibition=((RFU determined for sample with test compound present−RFU determined for sample with positive control inhibitor) divided by (RFU determined in the presence of vehicle−RFU determined for sample with positive control inhibitor))*100.
Dose dilution series were prepared for the compounds enabling the testing of dose-response effects in the JAK1 assay and the calculation of the IC50 for the compound. Each compound is routinely tested at concentration of 20 μM followed by a 1/5 serial dilution, 10 points in a final concentration of 1% DMSO. When potency of compound series increases, more dilutions are prepared and/or the top concentration are lowered (e.g. 5 μM, 1 μM). […]

[1] = Illustrative Compounds of the invention (Table V)

T1 sequence (P23458 866-1154): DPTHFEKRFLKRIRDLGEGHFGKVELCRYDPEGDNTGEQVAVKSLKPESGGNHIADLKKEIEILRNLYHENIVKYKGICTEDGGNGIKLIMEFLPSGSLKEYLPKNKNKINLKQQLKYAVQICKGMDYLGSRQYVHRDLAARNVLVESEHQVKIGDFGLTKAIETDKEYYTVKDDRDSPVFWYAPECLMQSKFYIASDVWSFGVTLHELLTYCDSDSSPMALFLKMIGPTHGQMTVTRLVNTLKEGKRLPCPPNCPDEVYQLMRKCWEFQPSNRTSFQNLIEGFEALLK

Structure (SMILES)	IC50 [1]	IC50 (Comparative Compounds (Table VI))
CN(c1cc(NC(=O)[C@H]2C[C@H]2F)c2ncn(C)c2c1)c1ccc(C#N)nc1F [Cpd 14, (1R,2R)-N-[6-[(6-cyano-2-fluoro-3-pyridyl)-methyl-amino]-1-methyl-benzimidazol-4-yl]-2-fluoro-cyclopropanecarboxamide]	0.1 to 50 nM	–
CN(c1cc(NC(=O)[C@H]2C[C@H]2F)c2ncn(C)c2c1)c1ccc(C#N)cc1F [Cpd 15, (1R,2R)-N-[6-(4-cyano-2-fluoro-N-methyl-anilino)-1-methyl-benzimidazol-4-yl]-2-fluoro-cyclopropanecarboxamide]	0.1 to 50 nM	–
Cc1cc(S(C)(=O)=O)cc(F)c1N(C)c1cc(NC(=O)[C@H]2C[C@H]2F)c2ncn(C)c2c1 [Cpd 16, (1R,2R)-2-fluoro-N-[6-(2-fluoro-N,6-dimethyl-4-methylsulfonyl-anilino)-1-methyl-benzimidazol-4-yl]cyclopropanecarboxamide]	0.1 to 50 nM	–
CN(c1cc(NC(=O)[C@H]2C[C@H]2F)c2ncn(C)c2c1)c1ccc(S(C)(=O)=O)cc1F [Cpd 17, (1R,2R)-2-fluoro-N-[6-(2-fluoro-N-methyl-4-methylsulfonyl-anilino)-1-methyl-benzimidazol-4-yl]cyclopropanecarboxamide]	100 to 500 nM	–
Cc1cc(C#N)ncc1Oc1cc(NC(=O)[C@H]2C[C@H]2F)c2ncn(C)c2c1 [Cpd 20, (1R,2R)-N-[6-[(6-cyano-4-methyl-3-pyridyl)oxy]-1-methyl-benzimidazol-4-yl]-2-fluoro-cyclopropanecarboxamide]	0.1 to 50 nM	–
Cc1cc(C#N)nc(F)c1N(C)c1cc(NC(=O)[C@H]2C[C@H]2F)c2ncn(C)c2c1 [Cpd 21, (1R,2R)-N-[6-[(6-cyano-2-fluoro-4-methyl-3-pyridyl)-methyl-amino]-1-methyl-benzimidazol-4-yl]-2-fluoro-cyclopropanecarboxamide]	0.1 to 50 nM	–
Cc1cnc(C#N)c(F)c1N(C)c1cc(NC(=O)[C@H]2C[C@H]2F)c2ncn(C)c2c1 [Cpd 22, (1R,2R)-N-[6-[(2-cyano-3-fluoro-5-methyl-4-pyridyl)-methyl-amino]-1-methyl-benzimidazol-4-yl]-2-fluoro-cyclopropanecarboxamide]	0.1 to 50 nM	–
Cc1cc(C#N)ncc1Oc1cc(N)c2ncn(C)c2c1 [Cpd 28, 5-(7-amino-3-methyl-benzimidazol-5-yl)oxy-4-methyl-pyridine-2-carbonitrile]	50 to 100 nM	–
CNc1cc(Oc2cnc(C#N)cc2C)cc2c1ncn2C [Cpd 34, 4-methyl-5-[3-methyl-7-(methylamino)benzimidazol-5-yl]oxy-pyridine-2-carbonitrile]	100 to 500 nM	–
Cc1cc(C#N)ncc1Oc1cc(N(C)C)c2ncn(C)c2c1 [Cpd 35, 5-[7-(dimethylamino)-3-methyl-benzimidazol-5-yl]oxy-4-methyl-pyridine-2-carbonitrile]	> 500 nM	–
Cc1cc(C#N)ncc1Oc1cc(NC(=O)N2CC(O)C2)c2ncn(C)c2c1 [Cpd 36, N-[6-[(6-cyano-4-methyl-3-pyridyl)oxy]-1-methyl-benzimidazol-4-yl]-3-hydroxy-azetidine-1-carboxamide]	> 500 nM	–
Cc1cc(C#N)ncc1Oc1cc(NC(=O)N2CCOCC2)c2ncn(C)c2c1 [Cpd 37, N-[6-[(6-cyano-4-methyl-3-pyridyl)oxy]-1-methyl-benzimidazol-4-yl]morpholine-4-carboxamide]	> 500 nM	–
Cc1cc(C#N)ncc1Oc1cc(NC(=O)NC(C)C)c2ncn(C)c2c1 [Cpd 38, 1-[6-[(6-cyano-4-methyl-3-pyridyl)oxy]-1-methyl-benzimidazol-4-yl]-3-isopropyl-urea]	0.1 to 50 nM	–
CN(c1cc2c(cn1)ncn2C)c1ccc(C#N)cc1F [D, reference compound]	–	> 500 nM

Second part, the compound after the results:

IC50 [1]	IC50 (Comparative Compounds (Table VI))	Structure (SMILES)
0.1 to 50 nM	–	CCc1cc(S(C)(=O)=O)ncc1N(C)c1cc(NC(=O)C2CC2)c2ncn(C)c2c1 [Cpd 18, N-[6-[(4-ethyl-6-methylsulfonyl-3-pyridyl)-methyl-amino]-1-methyl-benzimidazol-4-yl]cyclopropanecarboxamide]
0.1 to 50 nM	–	Cc1cc(S(C)(=O)=O)cc(F)c1N(C)c1cc(NC(=O)C2CC2)c2ncn(C)c2c1 [Cpd 19, N-[6-(2-fluoro-N,6-dimethyl-4-methylsulfonyl-anilino)-1-methyl-benzimidazol-4-yl]cyclopropanecarboxamide]
0.1 to 50 nM	–	Cc1cc(C#N)ncc1Oc1cc(NC(=O)C2CC2)c2ncn(C)c2c1 [Cpd 23, N-[6-[(6-cyano-4-methyl-3-pyridyl)oxy]-1-methyl-benzimidazol-4-yl]cyclopropanecarboxamide]
0.1 to 50 nM	–	CCc1cc(C(N)=O)ncc1N(C)c1cc(NC(=O)C2CC2)c2ncn(C)c2c1 [Cpd 24, 5-((4-(cyclopropanecarboxamido)-1-methyl-1H-benzo[d]imidazol-6-yl)(methyl)amino)-4-ethylpicolinamide]
0.1 to 50 nM	–	CCc1cc(C(N)=O)ncc1N(C)c1cc(NC(=O)[C@H]2C[C@H]2F)c2ncn(C)c2c1 [Cpd 25, 4-ethyl-5-((4-((1R,2R)-2-fluorocyclopropanecarboxamido)-1-methyl-1H-benzo[d]imidazol-6-yl)(methyl)amino)picolinamide]
0.1 to 50 nM	–	Cc1cc(S(C)(=O)=O)ccc1N(C)c1cc(NC(=O)[C@H]2C[C@H]2F)c2ncn(C)c2c1 [Cpd 26, (1R,2R)-N-[6-(N,2-dimethyl-4-methylsulfonyl-anilino)-1-methyl-benzimidazol-4-yl]-2-fluoro-cyclopropanecarboxamide]
0.1 to 50 nM	–	CCS(=O)(=O)c1ccc(N(C)c2cc(NC(=O)[C@H]3C[C@H]3F)c3ncn(C)c3c2)c(C)c1 [Cpd 27, (1R,2R)-N-[6-(4-ethylsulfonyl-N,2-dimethyl-anilino)-1-methyl-benzimidazol-4-yl]-2-fluoro-cyclopropanecarboxamide]
0.1 to 50 nM	–	CCc1cc(S(C)(=O)=O)ncc1Oc1cc(NC(=O)C2CC2)c2ncn(C)c2c1 [Cpd 29, N-[6-[(4-ethyl-6-methylsulfonyl-3-pyridyl)oxy]-1-methyl-benzimidazol-4-yl]cyclopropanecarboxamide]
50 to 100 nM	–	Cc1cc(C(N)=O)ncc1Oc1cc(NC(=O)[C@H]2C[C@H]2F)c2ncn(C)c2c1 [Cpd 32, 5-[7-[[(1R,2R)-2-fluorocyclopropanecarbonyl]amino]-3-methyl-benzimidazol-5-yl]oxy-4-methyl-pyridine-2-carboxamide]
